Numbers after ± are expanded uncertainties.
Assay: xn = mol fraction of the nth substance listed
Conditions: 101 kPa, Liquid

## CCOCCCN [3-ethoxy-1-propanamine] + O
293.15 K, x1 = 0.2438
  mass density: 944.543 ± 0.44 kg/m3
293.15 K, x1 = 0.2923
  mass density: 935.456 ± 0.47 kg/m3
293.15 K, x1 = 0.361
  mass density: 922.252 ± 0.51 kg/m3
293.15 K, x1 = 0.4369
  mass density: 911.545 ± 0.56 kg/m3
293.15 K, x1 = 0.4937
  mass density: 902.62 ± 0.59 kg/m3
293.15 K, x1 = 0.5513
  mass density: 895.311 ± 0.62 kg/m3
293.15 K, x1 = 0.6214
  mass density: 887.472 ± 0.66 kg/m3
293.15 K, x1 = 0.6775
  mass density: 881.634 ± 0.69 kg/m3
293.15 K, x1 = 0.6943
  mass density: 880.062 ± 0.7 kg/m3
293.15 K, x1 = 0.7458
  mass density: 875.436 ± 0.72 kg/m3
293.15 K, x1 = 0.7733
  mass density: 873.142 ± 0.73 kg/m3
293.15 K, x1 = 0.7947
  mass density: 871.067 ± 0.75 kg/m3
293.15 K, x1 = 0.8276
  mass density: 868.648 ± 0.76 kg/m3
293.15 K, x1 = 0.8744
  mass density: 864.922 ± 0.78 kg/m3
293.15 K, x1 = 0.8993
  mass density: 862.73 ± 0.8 kg/m3
293.15 K, x1 = 0.9189
  mass density: 861.498 ± 0.81 kg/m3
293.15 K, x1 = 0.9411
  mass density: 859.742 ± 0.82 kg/m3
293.15 K, x1 = 0.9486
  mass density: 859.29 ± 0.82 kg/m3
293.15 K, x1 = 0.9613
  mass density: 858.247 ± 0.83 kg/m3
293.15 K, x1 = 0.9746
  mass density: 857.315 ± 0.83 kg/m3
293.15 K, x1 = 0.9871
  mass density: 856.398 ± 0.84 kg/m3
293.15 K, x1 = 1
  mass density: 855.715 ± 0.84 kg/m3
298.15 K, x1 = 0.000108
  mass density: 997.018 ± 0.31 kg/m3
298.15 K, x1 = 0.000319
  mass density: 996.937 ± 0.31 kg/m3
298.15 K, x1 = 0.000625
  mass density: 996.811 ± 0.31 kg/m3
298.15 K, x1 = 0.000942
  mass density: 996.67 ± 0.31 kg/m3
298.15 K, x1 = 0.001284
  mass density: 996.533 ± 0.31 kg/m3
298.15 K, x1 = 0.001947
  mass density: 996.269 ± 0.31 kg/m3
298.15 K, x1 = 0.002912
  mass density: 995.851 ± 0.31 kg/m3
298.15 K, x1 = 0.00392
  mass density: 995.45 ± 0.31 kg/m3
298.15 K, x1 = 0.005098
  mass density: 995.024 ± 0.32 kg/m3
298.15 K, x1 = 0.00981
  mass density: 993.348 ± 0.32 kg/m3
298.15 K, x1 = 0.0148
  mass density: 991.824 ± 0.32 kg/m3
298.15 K, x1 = 0.01956
  mass density: 990.53 ± 0.32 kg/m3
298.15 K, x1 = 0.02832
  mass density: 988.433 ± 0.33 kg/m3
298.15 K, x1 = 0.03914
  mass density: 986.207 ± 0.33 kg/m3
298.15 K, x1 = 0.05082
  mass density: 983.995 ± 0.34 kg/m3
298.15 K, x1 = 0.06674
  mass density: 980.975 ± 0.35 kg/m3
298.15 K, x1 = 0.09536
  mass density: 975.145 ± 0.36 kg/m3
298.15 K, x1 = 0.1209
  mass density: 969.369 ± 0.38 kg/m3
298.15 K, x1 = 0.1452
  mass density: 963.561 ± 0.39 kg/m3
298.15 K, x1 = 0.1844
  mass density: 954.192 ± 0.42 kg/m3
298.15 K, x1 = 0.2121
  mass density: 947.02 ± 0.43 kg/m3
298.15 K, x1 = 0.2438
  mass density: 940.074 ± 0.46 kg/m3
298.15 K, x1 = 0.2923
  mass density: 930.954 ± 0.48 kg/m3
298.15 K, x1 = 0.361
  mass density: 917.676 ± 0.53 kg/m3
298.15 K, x1 = 0.4369
  mass density: 906.929 ± 0.57 kg/m3
298.15 K, x1 = 0.4937
  mass density: 897.985 ± 0.61 kg/m3
298.15 K, x1 = 0.5513
  mass density: 890.64 ± 0.64 kg/m3
298.15 K, x1 = 0.6214
  mass density: 882.775 ± 0.68 kg/m3
298.15 K, x1 = 0.6775
  mass density: 876.891 ± 0.7 kg/m3
298.15 K, x1 = 0.6943
  mass density: 875.446 ± 0.71 kg/m3
298.15 K, x1 = 0.7458
  mass density: 870.539 ± 0.74 kg/m3
298.15 K, x1 = 0.7733
  mass density: 868.397 ± 0.75 kg/m3
298.15 K, x1 = 0.7947
  mass density: 866.312 ± 0.76 kg/m3
298.15 K, x1 = 0.8276
  mass density: 863.952 ± 0.78 kg/m3
298.15 K, x1 = 0.8488
  mass density: 862.009 ± 0.79 kg/m3
298.15 K, x1 = 0.8744
  mass density: 860.155 ± 0.8 kg/m3
298.15 K, x1 = 0.8993
  mass density: 858.054 ± 0.81 kg/m3
298.15 K, x1 = 0.9189
  mass density: 856.71 ± 0.82 kg/m3
298.15 K, x1 = 0.9411
  mass density: 855.013 ± 0.83 kg/m3
298.15 K, x1 = 0.9486
  mass density: 854.542 ± 0.83 kg/m3
298.15 K, x1 = 0.9613
  mass density: 853.53 ± 0.84 kg/m3
298.15 K, x1 = 0.9746
  mass density: 852.649 ± 0.85 kg/m3
298.15 K, x1 = 0.9871
  mass density: 851.83 ± 0.85 kg/m3
298.15 K, x1 = 1
  mass density: 851.018 ± 0.86 kg/m3
303.15 K, x1 = 0.000108
  mass density: 995.609 ± 0.31 kg/m3
303.15 K, x1 = 0.000319
  mass density: 995.522 ± 0.32 kg/m3
303.15 K, x1 = 0.000625
  mass density: 995.392 ± 0.32 kg/m3
303.15 K, x1 = 0.000942
  mass density: 995.256 ± 0.32 kg/m3
303.15 K, x1 = 0.001284
  mass density: 995.106 ± 0.32 kg/m3
303.15 K, x1 = 0.001947
  mass density: 994.822 ± 0.32 kg/m3
303.15 K, x1 = 0.002912
  mass density: 994.409 ± 0.32 kg/m3
303.15 K, x1 = 0.00392
  mass density: 993.991 ± 0.32 kg/m3
303.15 K, x1 = 0.005098
  mass density: 993.55 ± 0.32 kg/m3
303.15 K, x1 = 0.00981
  mass density: 991.796 ± 0.32 kg/m3
303.15 K, x1 = 0.0148
  mass density: 990.144 ± 0.33 kg/m3
303.15 K, x1 = 0.01956
  mass density: 988.708 ± 0.33 kg/m3
303.15 K, x1 = 0.02832
  mass density: 986.387 ± 0.33 kg/m3
303.15 K, x1 = 0.03914
  mass density: 983.868 ± 0.34 kg/m3
303.15 K, x1 = 0.05082
  mass density: 981.31 ± 0.34 kg/m3
303.15 K, x1 = 0.06674
  mass density: 977.903 ± 0.35 kg/m3
303.15 K, x1 = 0.09536
  mass density: 971.645 ± 0.37 kg/m3
303.15 K, x1 = 0.1209
  mass density: 965.331 ± 0.39 kg/m3
303.15 K, x1 = 0.1452
  mass density: 959.341 ± 0.4 kg/m3
303.15 K, x1 = 0.1844
  mass density: 949.751 ± 0.43 kg/m3
303.15 K, x1 = 0.2121
  mass density: 942.563 ± 0.45 kg/m3
303.15 K, x1 = 0.2438
  mass density: 935.55 ± 0.47 kg/m3
303.15 K, x1 = 0.2923
  mass density: 926.38 ± 0.49 kg/m3
303.15 K, x1 = 0.361
  mass density: 913.059 ± 0.54 kg/m3
303.15 K, x1 = 0.4369
  mass density: 902.254 ± 0.58 kg/m3
303.15 K, x1 = 0.4937
  mass density: 893.262 ± 0.62 kg/m3
303.15 K, x1 = 0.5513
  mass density: 885.906 ± 0.65 kg/m3
303.15 K, x1 = 0.6214
  mass density: 877.992 ± 0.69 kg/m3
303.15 K, x1 = 0.6775
  mass density: 872.12 ± 0.72 kg/m3
303.15 K, x1 = 0.6943
  mass density: 870.586 ± 0.73 kg/m3
303.15 K, x1 = 0.7458
  mass density: 865.744 ± 0.75 kg/m3
303.15 K, x1 = 0.7733
  mass density: 863.589 ± 0.76 kg/m3
303.15 K, x1 = 0.7947
  mass density: 861.557 ± 0.77 kg/m3
303.15 K, x1 = 0.8276
  mass density: 859.105 ± 0.79 kg/m3
303.15 K, x1 = 0.8744
  mass density: 855.327 ± 0.81 kg/m3
303.15 K, x1 = 0.8993
  mass density: 853.46 ± 0.82 kg/m3
303.15 K, x1 = 0.9189
  mass density: 851.896 ± 0.83 kg/m3
303.15 K, x1 = 0.9411
  mass density: 850.2 ± 0.84 kg/m3
303.15 K, x1 = 0.9486
  mass density: 849.691 ± 0.85 kg/m3
303.15 K, x1 = 0.9613
  mass density: 848.739 ± 0.85 kg/m3
303.15 K, x1 = 0.9746
  mass density: 847.719 ± 0.86 kg/m3
303.15 K, x1 = 0.9871
  mass density: 846.839 ± 0.87 kg/m3
303.15 K, x1 = 1
  mass density: 846.075 ± 0.87 kg/m3
